One data set concerns ATase. The data set is described as follows: Inactivation of ATase in mammalian cells, summary over human, rat and Chinese hamster cell lines. Type of data set: cell-based. Particulars: Table 5. On the procedure:
Mammalian cells were cultured under standard conditions. For example, Raji (a human lymphoblastoid cell line from a Burkitt's lymphoma) cells were grown in suspension culture in RPMI medium supplemented with 10% horse serum. […]
Cells were diluted to 10^6 /ml in culture medium containing either the appropriate concentration of inactivator or an equivalent volume of vehicle (DMSO). […] ATase activity was determined as described above, in duplicate sonicated cell extracts and expressed as the, percentage activity remaining based on that present in the untreated controls (for example 350-450 fm/mg in Raji cells).

Data set [1] deals with T1, ATase in human melanoma xenografts (Homo sapiens, UniProt P16455).
T1 construct: A375M cells are human melanoma cells from which the xenografts described below were established; endogenous in cells; host or cells: A375M xenograft grown in nude mice
T1 sequence (P16455 1-207): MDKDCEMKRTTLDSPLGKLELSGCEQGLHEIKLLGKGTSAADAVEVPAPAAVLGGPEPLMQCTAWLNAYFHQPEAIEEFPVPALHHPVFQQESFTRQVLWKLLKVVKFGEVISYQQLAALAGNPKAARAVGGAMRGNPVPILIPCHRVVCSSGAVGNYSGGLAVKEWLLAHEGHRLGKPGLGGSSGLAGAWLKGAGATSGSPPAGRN
The data set is described as follows: ATase activity in human melanoma (A375) xenografts grown in nude mice after inactivator. Particulars: for inactivation of ATase in human melanoma xenografts, in words: single i.p. dose 30 or 60 mg/kg (FIG. 17); for ATase mean activity (fm/mg): Tumour. Type of data set: in vivo. As for the experimental part: Cells (10^6) in 100 μl of PBS were injected subcutaneously into the right-hand flank of 8-10 week old nu/nu athymic mice. These cells were allowed to develop into a tumour for 3-4 weeks for passaging into experimental animals. Tumour blocks measuring 2 mm×2 mm×2 mm were implanted subcutaneously on the right hand flank. These animals were ready for use in inactivator experiments in 7-10 days.
ATase substrate DNA was prepared by incubation of purified calf thymes DNA with N-[^3 H]-methyl-N-nitrosuourea (18.7 Ci/mmole, Amersham International). Cell or tissue extracts (see 4.4) were incubated with [^3 H]-methylated-DNA substrate (100 μl containing 6.7 μg of DNA and 100 fmol of O^6 -[^3 H]methylguanine) at 37° C. for 60 mins. Following acid hydrolysis of the DNA as precviously described^21the [^3 H]-methylated protein was recovered and quantitated by liquid scintillation counting.
(§1) Mice were treated with the inactivator as a suspension in corn oil by intraperitoneal injection (i.p.) or by oral gavage (p.o.) 60 mins prior to temozolomide (100 mg/kg in 20% DMSO in phosphate-buffered saline) which was always given by intraperitoneal injection: this schedule was repeated on days 1 to 5 inclusive. Controls received vehicle alone, inactivator alone or temozolomide alone.
(In general: Xenograft models place foreign cells or tissue in a host animal.)

Another data set has as its system A375 tumour xenografts. The data set is described as follows: Xenograft study: sensitization of A375 tumour xenografts to BCNU. Particulars: inactivator 30 or 60 mg/kg + BCNU 10-25 mg/kg i.p. (FIGS. 9-13). Type of data set: in vivo, nude mice. On the procedure:
OX6 OPT, England (OLAC mice). […] For this reason lower doses were administered. Cells (10^6) in 100 μl of PBS were injected subcutaneously into the right-hand flank of 8-10 week old nu/nu athymic mice. […] The experimental animals were also weighed every 1-2 days. Measurements continued until tumours in the control animals reached the maximum allowable volume (i.e. 1 cm×1 cm×1 cm).

In data set [2] the target is T1, ATase in human melanoma xenografts. The data set is described as follows: ATase activity in human melanoma (A375) xenografts grown in nude mice after inactivator. Type of data set: in vivo. Particulars: with temozolomide 50 mg/kg i.p., three consecutive days, 24 hours after final dose (FIG. 19).
The test system of another data set is bone marrow cells. The data set is described as follows: Inactivator toxicity in bone marrow cells (GM-CFC colonies, inactivator alone). Type of data set: cell-based, human. Particulars: 10 μM, 5 patients (Table 7). From the text: For the granulocyte/macrophage colony-forming cell (GM-CFC) assay primary human bone marrow samples were obtained from patients undergoing cardiothoracic surgery. […] The colonies represented precursor cells of the granulocyte/macrophage lineage (huGM-CFC). Survival was expressed as a % of the number of colonies at zero dose temozolomide.

The next data set concerns the target T2, ATase in Raji cells (Homo sapiens, UniProt P16455).
T2 construct: endogenous in cells; host or cells: Raji
T2 sequence (P16455 1-207): T1 sequence (P16455 1-207)
The data set is described as follows: Inactivation of ATase activity in mammalian cells: Raji. The format is cell-based. On the procedure:
Mammalian cells were cultured under standard conditions. For example, Raji (a human lymphoblastoid cell line from a Burkitt's lymphoma) cells were grown in suspension culture in RPMI medium supplemented with 10% horse serum. A375M cells are human melanoma cells from which the xenografts described below were established following subcutaneous injection into nude mice: WiDr cells are a human colon carcinoma cell line: Hamster+120 cells are a mitozolomide-selected subline of a Chinese hamster lung fibroblast V79 cell line called RJKO: Yoshida cells are a rat carcinosarcoma cell line and YRbus is a busulphan resistant subline thereof: XP cells are an SV40-transformed fibroblast cell line originally from the skin of a Xeroderma piamentosum patient, pHMGhAT2b cells are a clone of these cells that have been transfected with a mammalian cell expression vector containing the human ATase cDNA and pHMGla cells are a clone that have been transfected with the expression vector only (i.e. one not containing the human ATase cDNA). Cell pellets were resuspended in cold (4° C.) buffer I containing 2 μg/ml leupeptin and sonicated for 10 seconds at 12μ peak to peak distance. After cooling in ice, the cells were sonicated for a further 10 seconds at 18μ. […]

In the next data set the test system is nude mice. The data set is described as follows: Survival of xenograft-bearing nude mice given inactivator plus temozolomide. The format is in vivo, mouse. As for the experimental part: as §1
The mice in the tests shown in FIGS. 19-24 were Swiss mouse derived athymic male mice ([…]) from ZENECA Pharmaceuticals, Mereside, Alderley Park, Macclesfield, Cheshire SK10 4T6, England.

The next data set has as its system DBA2 mice. The data set is described as follows: Toxicity of inactivators in combination with BCNU in DBA2 mice. Type of data set: in vivo, mouse. Particulars: Table 11. From the text: All agents were given as a single i.p. dose

SMILES strings stand for the structures. Several values for one entry are separate records, joined by “and”; a condition that tells them apart may be missing. Equal values may be shown once. Entries after “also recorded” stand apart in the source; their conditions may differ. Read-outs that look alike come from different tables or passages of the source.

With `Nc1nc(OCc2cccs2)c2nc[nH]c2n1` [B.4205, 0^6 -thenylguanine], the “effectiveness relative to BeG in the cell lines used” value in the data set with ATase is reported as “up to 7 times”. Besides, in data set [1] (30 mg/kg (FIG. 8)), the “inactivating ATase in human melanoma xenografts, in words” value is recorded as “as effetive as BeG”. In data set [1], the “inactivation of ATase in human melanoma xenografts, in words” value is “inactivated”. Besides, in the data set with A375 tumour xenografts, the “sensitization of A375 xenografts to BCNU (tumour volume), in words” value is listed as “comparable to O^6 -benzylguanine (BeG) in reducing tumour volume”. For the same compound, in data set [2], the “ATase inactivation in tumour xenografts, in words” value was “more effective in ATase inactivation in tumour xenografts than either agent alone and 10 mg/kg being ag ettentive as 60 mg/kg”. Further, the “toxic effect of inactivator alone on bone marrow cells, in words” value in the data set on bone marrow cells is “comparable to those for O^6 -benzylguanine”. For the same compound, the IC50 on ATase in Raji cells (Table 4, Raji cells, 2 hours at 37° C., read-out: Raji I50) is 0.02 µM; at ATase in Raji cells (Table 5, Human Raji, read-out: Inactivation of ATase in Mammalian Cells I50), 0.02 µM.

As to `Nc1nc(OCc2cc(Br)cs2)c2nc[nH]c2n1` [B.4280, O^6-(4-bromothenyl)guanine], the “recovery of tumour ATase activity, in words” value in data set [1] (10 mg/kg i.p. (Table 10)) was “very low at 24 hours but had recovered completely by 48 hours”. Besides, the “ATase mean activity (fm/mg)” value is reported as 36 ± 7.79 fm/mg in data set [1] (24 h after 10 mg/kg i.p.) and 140 ± 43.87 fm/mg in data set [1] (48 h after 10 mg/kg i.p.). Further, the “inactivation of ATase in human melanoma xenografts, in words” value in data set [1] was “inactivated; also recorded: the most effective in vivo inactivator at the doses examined”. In addition, the “toxicity of oral combination versus i.p. route, in words” value with nude mice (with temozolomide (FIG. 24B)) is reported as “marginally less toxic than the i.p. route”. Also, in the data set with nude mice (with temozolomide (FIGS. 21B, 22B)), the “toxicity at equi-effective doses for tumour growth inhibition, in words” value is on record as “less toxic than B.4205”. Also, the “ATase inactivation in tumour xenografts, in words” value in data set [2] is on record as “more effective in ATase inactivation in tumour xenografts than either agent alone; also recorded: more effective than B.4205 at equivalent doses”. In addition, the “acute toxicity in combination with BCNU in DBA2 mice, in words” value with DBA2 mice is given as “considerably less acutely toxic than B.4205 or BeG”.
